Laboratory results as given in ChEMBL document CHEMBL1201862, “PubChem BioAssay data set” (2004).
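Results reflect a 48-hour exposure of cells in 96-well plates to compound at five concentrations. GI50 marks 50% less growth.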 Active and inactive are the calls of the source. No stated cut-off is given here; in the data, active = GI50 up to about 1.1 µM and inactive = higher.

Tests used:
Test in all cases: inhibition of tumour cell growth, NCI panel, 48 h
RXF 393 = system: RXF 393
OVCAR-4 = system: OVCAR-4
A549 = system: A549
K562 = system: K562
HOP-92 = system: HOP-92
HCT-116 = system: HCT-116
Malme-3M = system: Malme-3M
SNB-19 = system: SNB-19
HCC 2998 = system: HCC 2998
CCRF-CEM = system: CCRF-CEM
NCI-H522 = system: NCI-H522
SK-MEL-28 = system: SK-MEL-28
UO-31 = system: UO-31
HT-29 = system: HT-29
OVCAR-3 = system: OVCAR-3
SNB-75 = system: SNB-75
EKVX = system: EKVX
OVCAR-5 = system: OVCAR-5
KM12 = system: KM12
HOP-18 = system: HOP-18

Measured: GI50

CC1C(=O)OC2CC[N+]3(CC(=O)c4ccc(Br)cc4)CC=C(COC(=O)C(C)(O)C1(C)O)C23 (stereo not given)
inactive: RXF 393 > 375 µM | OVCAR-4 > 375 µM | A549 > 375 µM | K562 > 375 µM | HOP-92 > 299 µM | HCT-116 > 375 µM | Malme-3M > 375 µM | SNB-19 > 375 µM | HCC 2998 > 375 µM | CCRF-CEM > 375 µM | NCI-H522 > 375 µM | SK-MEL-28 > 375 µM | UO-31 > 375 µM | HT-29 > 375 µM | OVCAR-3 > 375 µM | SNB-75 > 375 µM | EKVX > 375 µM | OVCAR-5 > 375 µM | KM12 > 375 µM | HOP-18 > 375 µM
